Test results taken from patent publication US20060217368A1, “Drug for nerve regeneration” (Kyowa Hakko Kogyo Co., Ltd., priority 2003, published 2006).

Key:
Format in all cases: cell-based, rat
ANSC-7 cells [1] = test: Suppression of neuropoiesis by associated beta amyloid peptide and relief by GSK-3 inhibitor (Tuj1 positive neurons); conditions: day 6
Method: A beta amyloid peptide (hereinafter, referred to as Aβ) is a principal component constituting senile plaques, and it is a substance which has been believed to be a cause of Alzheimer's disease [Proc. Nat. Acad. Sci., USA, 98, 11039-11041 (2001)]. Aβ [1-40] (manufactured by BIOSOURCE) was dissolved in 0.1% (v/v) trifluoroacetic acid (Manufactured by Nacalai Tesque, Inc.) to give 10 mg/ml, and incubated at 25° C. for 1 hour. Thereafter, the solution was diluted in PBS to give 0.5 mg/ml. The diluted solution was incubated at 25° C. for 24 hrs to allow the formation of an associated product [J. Biol. Chem., 276, 42027-42034 (2001)]. […] On day 2 and day 4 following the induction of differentiation, the entire medium was changed to the differentiation inducing medium alone, respectively, and the number of neurons was measured on day 6 following induction of the differentiation.
According to a similar method to that shown in Experimental Example 8, lithiumchloride at a final concentration of 3 mmol/l, or Kenpaullone at a final concentration of 2 μmol/l was added to a differentiation inducing medium containing the associated Aβ at a final concentration of 0.1 mg/ml upon inducing differentiation of the ANSC-7 cell, and the number of Tuj1 positive neurons on day 6 following inducing differentiation was analyzed.

ANSC-7 cells [2] = test: Neuropoiesis of ANSC-7 adult neural stem cells: number of Tuj1 positive neurons after induction of differentiation
Method: ANSC-7 cells which can be obtained by the method described in Reference Example 2 are plated at 1.8×10^5 cells per well in a 12-well culture dish which was coated with polyornithine and laminin and was filled with a DMEM/F12 medium containing 1 ml of a 1% N2 supplement (manufactured by Invitrogen Corporation) and 20 ng/ml FGF-2 (manufactured by PeproTech Inc.), and incubated overnight. Entire culture fluid is changed into a DMEM/F12 medium containing 0.5% fetal bovine serum and a 1% N2 supplement without including FGF2 (manufactured by Invitrogen Corporation, hereinafter, referred to as differentiation inducing medium) to induce differentiation. Upon the induction, the substance that inhibits the activity of GSK-3 serially diluted in PBS (manufactured by Invitrogen Corporation) or DMSO in the range of from 0.01 mmol/l to […] is added thereto in 1/1000 volume. As a negative control, the same volume of PBS or DMSO is added.
After changing the culture fluid into the differentiation inducing medium supplemented with each substance that inhibits the activity of GSK-3 every three days, and inducing differentiation for 6 days, it is replaced with a 15% neutral buffered formalin solution (Wako Pure Chemical Industries, Ltd.) to allow fixation for 20 min. Thereafter, washing with PBS containing 0.3% Triton X-100 (manufactured by Nacalai Tesque, Inc.) for 5 min is repeated three times. Next, after blocking the cells using a 10% goat fetal serum diluted in PBS (manufactured by DAKO Corporation) for 2 hrs, a reaction is allowed with a mouse anti-Tuj1 (β tubulin isotype III) antibody (manufactured by Sigma-Aldrich Corporation) diluted 1000 times in PBS as a primary antibody at 4° C. for 16 hrs. Thereafter, washing with PBS containing 0.3% Triton X-100 for 5 min is repeated three times.
Next, a reaction is allowed with Alexa Fluor 488 conjugate goat anti-mouse IgG antibody (manufactured by Molecular Probes, Inc.) diluted 1000 times as a secondary antibody at room temperature for 2 hrs. At the same time, Bisbenzimide H 33342 Fluorochrome, Trihydrochloride (manufactured by CALBIOCHEM, hereinafter, described as H33342) is added thereto to give the final concentration of 1 μg/ml to stain the nucleus. After immersing in PBS, observation with an inverted fluorescence microscope (manufactured by Nikon Corporation) is conducted, and the number of Tuj1 positive cells per 2.44 mm^2 is counted.

ANSC-7 cells [3] = test: Apoptosis of ANSC-7 cells (in situ cell death detection kit, fluorescein); conditions: final concentration 0.1 mg/ml; 6 days; vs PBS
Method: According to the method described in the above section 7, lithium chloride was added to give the final concentration of 3 mmol/l into the medium containing ANSC-7 cells followed by culture for 6 days. ANSC-7 cells thus cultured after adding lithium chloride, and ANSC-7 cells cultured after adding PBS as a control were allowed to a reaction using an in situ cell death detection kit, fluorescein (manufactured by Roche Diagnostics K.K.) according to the attached protocol. The cells were observed using an inverted fluorescence microscope (manufactured by Nikon Corporation), and the number of apoptotic cell was counted per 2.44 mm^2.
According to a similar method to that shown in Experimental Example 8, ANSC-7 cells subjected to induction of differentiation for 6 days by a differentiation inducing medium containing the associated Aβ at the final concentration of 0.1 mg/ml, and ANSC-7 cells subjected to induction of differentiation by a medium containing PBS as a control were allowed to react using an in situ cell death detection kit, fluorescein (manufactured by Roche Diagnostics K.K.) according to the attached protocol. The cells were observed using an inverted fluorescence microscope (manufactured by Nikon Corporation), and the number of apoptotic cells per 2.44 mm^2 was counted.

GSK-3α = test: Amount of GSK-3α in ANSC-7 cells after siRNA introduction (Western blotting); conditions: 150 pmol per 1×10^6 ANSC-7 cells; 48 hrs following seeding
ANSC-7 cells [4] = test: Neuropoiesis of ANSC-7 adult neural stem cells: number of Tuj1 positive neurons after induction of differentiation; conditions: siRNA introduced into ANSC-7; day 6
[5] = final concentration 2 μmol/l, day 6
[6] = final concentration 5 μmol/l, day 6

`O=C1Cc2c([nH]c3ccc(Br)cc23)-c2ccccc2N1` [Kenpaullone, 9-bromo-7,12-dihydro-indolo[3,2-d][1]benzazepin-6(5H)-one] was tested, and the “increase in number of Tuj1 positive neurons in comparison with associated Aβ alone” value (ANSC-7 cells [1]; 2 μmol/l with 0.1 mg/ml associated Aβ) was 400%, the “number of Tuj1 positive neurons in comparison with the negative control” value (ANSC-7 cells [2]; final concentration 0.5 μmol/l, day 6) was 1.3 times and the “number of Tuj1 positive neurons in comparison with the negative control” value (ANSC-7 cells [2]; [5]) was 2.7 times. For the same compound, the “number of Tuj1 positive neurons in comparison with the negative control” value (ANSC-7 cells [2]; [6]) was 3.7 times.
In the case of `CC[C@H](CO)Nc1nc(NCc2ccccc2)c2ncn(C(C)C)c2n1` [Roscovitine], the “number of Tuj1 positive neurons in comparison with the negative control” value (ANSC-7 cells [2]; [5]) is reported as 1.0 times, the “number of Tuj1 positive neurons in comparison with the negative control” value (ANSC-7 cells [2]; [6]) is reported as 1.2 times and the “number of Tuj1 positive neurons in comparison with the negative control” value (ANSC-7 cells [2]; final concentration 10 μmol/l, day 6) is reported as 1.1 times.
With `Cn1cc(C2=C(c3ccc(Cl)cc3Cl)C(=O)NC2=O)c2ccccc21` [SB-216763, 3-(2,4-dichlorophenyl)-4-(1-methylindole-3-yl)-1H-pyrrole-2,5-dione] the “number of Tuj1 positive neurons relative to control” value (ANSC-7 cells [2]; final concentration 0.3 μmol/l, day 6) was 1.2 times and the “number of Tuj1 positive neurons relative to control” value (ANSC-7 cells [2]; final concentration 1.0 μmol/l, day 6) was 1.8 times.
In the case of `C=C[C@@]1(C)CC(=O)[C@]2(O)[C@@]3(C)[C@@H](O)CCC(C)(C)[C@@H]3[C@H](O)[C@H](OC(C)=O)[C@@]2(C)O1` [forskolin], the “rate of increase in neurons” value (ANSC-7 cells [2]; 1 μmol/l, coexistence with 3 mmol/l lithium chloride) is reported as 1.2 times, the “rate of increase in neurons” value (ANSC-7 cells [2]; 1 μmol/l, without lithium chloride) is reported as 1.9 times and the “rate of increase in neurons” value (ANSC-7 cells [2]; 5 μmol/l, coexistence with 3 mmol/l lithium chloride) is reported as 1.1 times. For the same compound, the “rate of increase in neurons” value (ANSC-7 cells [2]; 5 μmol/l, without lithium chloride) was 2.2 times.
`[Cl-].[Na+]` [sodium chloride] was tested, and the “number of Tuj1 positive neurons relative to control” value (ANSC-7 cells [2]; final concentration 0.01 mmol/l, day 6 following induction of differentiation) was 1.0 times, the “number of Tuj1 positive neurons relative to control” value (ANSC-7 cells [2]; final concentration 0.1 mmol/l, day 6 following induction of differentiation) was 1.1 times and the “number of Tuj1 positive neurons relative to control” value (ANSC-7 cells [2]; final concentration 1 mmol/l, day 6 following induction of differentiation) was 1.2 times. The “number of Tuj1 positive neurons relative to control” value (ANSC-7 cells [2]; final concentration 3 mmol/l, day 6 following induction of differentiation) was 1.2 times.
For “associated Aβ: beta amyloid peptide Aβ [1-40] incubated to form an associated product”, the “decrease in number of Tuj1 positive neurons” value (ANSC-7 cells [1]; final concentration 0.1 mg/ml, vs PBS) was 78% and the “increase in number of apoptotic positive cells” value (ANSC-7 cells [3]) was 14%.
In the case of indirubin-3′-monoxime, the “number of Tuj1 positive neurons in comparison with the negative control” value (ANSC-7 cells [2]; final concentration 1 μmol/l, day 6) is reported as 1.4 times.
For “siRNA-B1: double stranded siRNA having SEQ ID NO: 14 and 15, specific for GSK-3β (chain 1 GUCAGUUACACAGACACUAUU; chain 2 UAGUGUCUGUGUAACUGACUU; listed as RNA, chemistry not given here)”, the “amount of GSK-3α” value (GSK-3α) was “unchanged” and the “number of Tuj1 positive neurons in comparison with the negative control siRNA” value (ANSC-7 cells [4]) was 2.5 times.
In the case of “siRNA-B2: double stranded siRNA having SEQ ID NO: 16 and 17, specific for GSK-3β (chain 1 GUCUAGCCUAUAUCCAUUCUU; chain 2 GAAUGGAUAUAGGCUAGACUU; listed as RNA, chemistry not given here)”, the “amount of GSK-3α” value (GSK-3α) is reported as “unchanged” and the “number of Tuj1 positive neurons in comparison with the negative control siRNA” value (ANSC-7 cells [4]) is reported as 1.9 times.
